# Bridge positions count the residues as written; N and C are the ends. Square brackets hold non-standard residues; d marks the D form. Peptide text beside a SMILES is read from it. d2Nal = N[C@H](Cc1ccc2ccccc2c1)C(=O)O
# Key:
# [1] = target: Somatostatin receptor type 3 (Homo sapiens, UniProt P32745)
# [2] = target: Somatostatin receptor type 4 (Homo sapiens, UniProt P31391)
# [3] = target: Somatostatin receptor type 5 (Homo sapiens, UniProt P35346)
# [4] = target: Somatostatin receptor type 2 (Homo sapiens, UniProt P30874)
# Sequence of Somatostatin receptor type 2 (P30874 whole entry): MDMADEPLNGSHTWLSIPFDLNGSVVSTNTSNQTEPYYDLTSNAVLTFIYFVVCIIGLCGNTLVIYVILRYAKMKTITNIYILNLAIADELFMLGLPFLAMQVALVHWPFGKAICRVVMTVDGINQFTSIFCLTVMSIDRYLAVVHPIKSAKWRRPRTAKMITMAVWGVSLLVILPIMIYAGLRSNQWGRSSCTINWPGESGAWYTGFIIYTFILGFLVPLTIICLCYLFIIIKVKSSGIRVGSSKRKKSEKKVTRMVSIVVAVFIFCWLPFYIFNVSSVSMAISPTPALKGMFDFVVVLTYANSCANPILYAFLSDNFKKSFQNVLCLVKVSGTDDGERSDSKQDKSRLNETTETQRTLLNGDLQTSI
# Sequence of Somatostatin receptor type 4 (P31391 whole entry): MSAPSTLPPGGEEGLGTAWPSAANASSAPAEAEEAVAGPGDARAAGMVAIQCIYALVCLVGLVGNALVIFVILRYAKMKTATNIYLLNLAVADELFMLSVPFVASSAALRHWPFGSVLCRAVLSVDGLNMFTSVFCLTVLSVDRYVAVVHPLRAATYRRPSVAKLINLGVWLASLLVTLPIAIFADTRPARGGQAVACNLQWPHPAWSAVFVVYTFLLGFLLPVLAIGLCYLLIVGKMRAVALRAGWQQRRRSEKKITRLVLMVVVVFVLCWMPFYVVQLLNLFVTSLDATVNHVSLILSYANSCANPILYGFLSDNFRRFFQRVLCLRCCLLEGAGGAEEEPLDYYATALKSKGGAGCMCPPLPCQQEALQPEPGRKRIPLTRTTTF
# Sequence of Somatostatin receptor type 3 (P32745 whole entry): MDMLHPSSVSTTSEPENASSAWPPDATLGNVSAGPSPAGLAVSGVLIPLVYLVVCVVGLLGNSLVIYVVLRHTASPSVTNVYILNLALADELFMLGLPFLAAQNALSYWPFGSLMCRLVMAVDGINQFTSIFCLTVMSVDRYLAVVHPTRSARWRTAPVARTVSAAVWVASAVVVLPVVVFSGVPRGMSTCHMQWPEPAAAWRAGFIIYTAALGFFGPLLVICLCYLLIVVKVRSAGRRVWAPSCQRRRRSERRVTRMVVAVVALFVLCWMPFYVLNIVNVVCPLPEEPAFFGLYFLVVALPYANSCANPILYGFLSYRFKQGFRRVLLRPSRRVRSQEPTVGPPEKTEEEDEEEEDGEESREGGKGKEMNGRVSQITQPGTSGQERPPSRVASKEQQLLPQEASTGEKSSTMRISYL
# Sequence of Somatostatin receptor type 5 (P35346 whole entry): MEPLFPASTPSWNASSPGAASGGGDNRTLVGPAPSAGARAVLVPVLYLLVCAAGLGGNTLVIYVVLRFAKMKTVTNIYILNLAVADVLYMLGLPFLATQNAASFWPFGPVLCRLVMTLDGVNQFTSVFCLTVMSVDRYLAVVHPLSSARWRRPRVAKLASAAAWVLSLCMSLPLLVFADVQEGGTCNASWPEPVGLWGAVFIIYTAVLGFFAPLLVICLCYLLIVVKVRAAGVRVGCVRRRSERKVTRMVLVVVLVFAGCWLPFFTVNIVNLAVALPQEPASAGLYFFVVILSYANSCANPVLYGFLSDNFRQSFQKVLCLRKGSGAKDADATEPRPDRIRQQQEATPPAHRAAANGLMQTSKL
Compound,IC50 [1],IC50 [2],IC50 [3],IC50 [4]
CC[C@@H]1NC(=O)[C@H](CCCCN)NC(=O)[C@@H](Cc2c[nH]c3ccccc23)NC(=O)[C@H](Cc2ccc(O)cc2)NC(=O)[C@@H](NC(=O)[C@H](N)Cc2ccccc2)CSSC[C@@H](C(=O)N[C@H](C(N)=O)[C@@H](C)O)NC1=O [D-Phe-L-Cys(1)-L-Tyr-D-Trp-L-Lys-L-Abu-L-Cys(1)-L-Thr-NH2],89 nM,–,–,–
C[C@@H](O)[C@H](NC(=O)[C@H](Cc1ccccc1)NC(=O)[C@@H](NC(=O)[C@H](CCCCN)NC(=O)[C@@H](Cc1c[nH]c2ccccc12)NC(=O)[C@H](Cc1ccccc1)NC(=O)[C@H](Cc1ccccc1)NC(=O)[C@H](N)Cc1ccccc1)[C@@H](C)O)C(N)=O [CAS_133073-82-2] (H-[dF]FF[dW]KTFT-NH2),–,132 nM,–,–
CC(C)[C@H](NC(=O)[C@H](CCCCN)NC(=O)[C@@H](Cc1c[nH]c2ccccc12)NC(=O)[C@H](Cc1ccc(O)cc1)NC(=O)[C@H](Cc1ccccc1)NC(=O)[C@H](N)Cc1ccccc1)C(=O)N[C@@H](Cc1ccccc1)C(=O)N[C@H](Cc1ccc2ccccc2c1)C(N)=O [CAS_150155-61-6] (H-[dF]FY[dW]KVF[d2Nal]-NH2),177 nM,234 nM,12.1 nM,132 nM
C[C@@H](O)[C@@H]1NC(=O)[C@H](CCCCN)NC(=O)[C@@H](Cc2c[nH]c3ccccc23)NC(=O)[C@H](Cc2ccccc2)NC(=O)[C@H](Cc2ccccc2)NC(=O)[C@H](N)CSSC[C@H](C(N)=O)NC(=O)[C@H](Cc2ccccc2)NC1=O (H-[dC]FF[dW]KTF[dC]-NH2; disulfide 1-8),61.6 nM,–,0.37 nM,15.1 nM
CC[C@@H]1NC(=O)[C@H](CCCCN)NC(=O)[C@@H](Cc2c[nH]c3ccccc23)NC(=O)[C@H](Cc2ccc(O)cc2)NC(=O)[C@@H](NC(=O)[C@@H](Cc2ccccc2)NC(=O)CN2CCN(CCO)CC2)CSSC[C@@H](C(=O)N[C@H](C(N)=O)[C@@H](C)O)NC1=O [BIM-23190],–,1000 nM,–,–
CC(C)[C@@H]1NC(=O)[C@H](CCCCN)NC(=O)[C@@H](Cc2c[nH]c3ccccc23)NC(=O)[C@H](Cc2ccc(O)cc2)NC(=O)[C@@H](NC(=O)[C@H](N)Cc2ccc3ccccc3c2)CSSC[C@@H](C(=O)N[C@H](C(N)=O)[C@@H](C)O)NC1=O [3-(2-Naphtyl)-D-Ala-L-Cys(1)-L-Tyr-D-Trp-L-Lys-L-Val-L-Cys(1)-L-Thr-NH2],107 nM,–,–,–
